The values that follow come from patent US9975853B2, “Tetrahydroisoquinolinone derivatives and their use in the inhibition of the HSP70 protein” (Julius-Maximilians-Universitaet Wuerzburg, priority 2014, dated 2018).

The structures appear in SMILES notation. pEC50: −log10 of the molar value. Like-named read-outs stand apart in the source and are kept apart here. Peptide text beside a SMILES is read from it. * marks the point of attachment. Cbz = O=C(OCc1ccccc1)*; CH2F = FC*

The test system of one series is caspases 9 and 3. Nature of the series: Apoptosis assay: cleavage and activation of caspases 9 and 3, PARP cleavage in INA-6 cells (Western blot). The settings on record: INA-6, Z-VAD-FMK 50 μM. Format: cell-based, human. How it is done:
Apoptosis Assays. Hsp70-dependent prevention of apoptosis was investigated by analyses of the apoptosis-inducing factors (AIF) and of the caspases 9 and 3 in INA-6 cells. INA-6 cells were treated with 0.6 μM of compound trans-7b for 8 hours prior to analyze nuclear translocation of AIF. Staining of the nuclear protein lamin A was used as a loading control. […] Analysis of cleavage of the bona fide caspase substrate PARP served as a control for caspase activation. Co-treatment with the pan-caspase inhibitor Z-VAD-FMK (50 μM) was employed as another specificity control.
In FIG. 2A Western blot analyses of caspases 9 and 3, and the caspase substrate PARP (upper panel), and viability analyses (lower panel) of INA-6 MM cells upon treatment with trans-7b for 24 hours are shown. […] Lysates were cleared by centrifugation, measured by quantitative protein assay (Bio-Rad, München, Germany) and subjected to SDS gel electrophoresis. […] INA-6 cells were washed in PBS, incubated for 15 minutes in 100 ml binding buffer (10 mM HEPES/NaOH, pH 7.4, 140 mM NaCl, 2.5 mM CaCl2) containing 2.5 mL annexin V-FITC mix and 1 mg/ml PI and analyzed by flow cytometry (FACSCalibur/CELLQuest; Becton Dickinson, Heidelberg, Germany). […] Raw data of three independent experiments have been calculated to establish means, standard deviation and dose-effect curves of trans-7b.

For another series, the system named is INA-6. Nature of the series: Cell viability assay (annexin V-FITC/propidium iodide, flow cytometry) in INA-6 multiple myeloma cells. Format: cell-based, human. The settings on record: for pEC50: INA-6 multiple myeloma cells, 72 hours of treatment, viable cell fraction, mean of at least three determinations, read-out: INA-6 EC50(±sdv). Here is the method: The effect of pharmacological Hsp70 inhibition on cell viability was analyzed after 72 hours of treatment in both non-malignant (mononuclear cells from the peripheral blood) and malignant lymphocytes (multiple myeloma cells). The mononuclear cells were separated from the peripheral blood of healthy donors by Ficoll-Hypaque density gradient centrifugation. The human cell line INA-6 represents a well-established model for multiple myeloma. The percentage of viable and apoptotic cell fractions was assessed using an annexin V-FITC/propidium iodide (PI) staining kit (Bender MedSystems, Vienna, Austria) according to manufacturer's instructions. In brief, cells were washed in PBS, incubated for 10 min in 100 ml binding buffer (10 mM HEPES/NaOH, pH 7.4, 140 mM NaCl, 2.5 mM CaCl2) containing 2.5 ml annexin V-FITC mix and 1 mg/ml propidium iodide (PI), subsequently diluted with 100 ml binding buffer and analyzed by flow cytometry (FACSCalibur/CELLQuest; Becton Dickinson, Heidelberg, Germany). Whereas viable cells are negative for both, annexin V-FITC and PI, early apoptotic cells show a positive annexin V-FITC staining, and cells in a late apoptotic stage which lose their membrane integrity additionally incorporate DNA-binding PI. To establish kill curves, concentrations of the tested compounds were titrated, and the measured viable cell fractions were further analyzed using the Prism Calculation Software (GraphPad Software Inc., La Jolla, USA).
In FIG. 2A Western blot analyses of caspases 9 and 3, and the caspase substrate PARP (upper panel), and viability analyses (lower panel) of INA-6 MM cells upon treatment with trans-7b for 24 hours are shown. INA-6 cells were either incubated with DMSO (as a solvent control) or with 0.6 μM of trans-7b, and additionally incubated either with DMSO or the pan-caspase inhibitor Z-VAD-FMK prior to analyses by Western or viability assessment (without Z-VAD-FMK co-treatment) by Annexin V/propidum iodide double staining. For Western analyses INA-6 cell pellets were dissolved in lysis buffer (20 mM HEPES (pH 7.9), 350 mM NaCl, 1 mM MgCl2, 0.5 mM EDTA, 0.1 mM EGTA, 1% NP40, 0.5 mM dithiothreiol (DTT), 1 mM Na3VO4, 0.1 mM PMSF and 1 μg/ml aprotinin). Lysates were cleared by centrifugation, measured by quantitative protein assay (Bio-Rad, München, Germany) and subjected to SDS gel electrophoresis. Proteins were transferred onto nitrocellulose membranes (Schleicher & Schuell, Dassel, Germany), incubated with antibodies specific for caspase 9, caspase 3 or PARP (Cell Signaling Technology, Frankfurt a.Main, Germany) according to standard procedures and visualized with secondary anti-rabbit horseradish peroxidase (HRP)-conjugated antibodies using an enhanced chemoluminescence detection system (ECL, Amersham, Freiburg, Germany). […] Annexin V/propidium iodide (PI) staining was performed using a fluorescein isothiocyanate (FITC) conjugated recombinant human annexin/propidium iodide kit (BenderMedSystems, Vienna, Austria) according to the manufacturer's instructions. INA-6 cells were washed in PBS, incubated for 15 minutes in 100 ml binding buffer (10 mM HEPES/NaOH, pH 7.4, 140 mM NaCl, 2.5 mM CaCl2) containing 2.5 mL annexin V-FITC mix and 1 mg/ml PI and analyzed by flow cytometry (FACSCalibur/CELLQuest; Becton Dickinson, Heidelberg, Germany). Whereas early apoptosis is characterized by positive annexin V-FITC staining reaction, cells in a late apoptotic stage lose their membrane integrity and additionally incorporate PI. Thus, the fraction of viable cells remains negative for both annexin V-FITC and PI. […] Based on the above described experiments also viability analyses of INA-6 in comparison with non-malignant PBMCs were performed choosing a longer incubation time (72 hours) as shown in FIG. 2B or C. Raw data of three independent experiments have been calculated to establish means, standard deviation and dose-effect curves of trans-7b.
A general note: A flow cytometer gives signals particle by particle.

As a reminder, the melting point is the temperature, or range, at which the solid turns liquid. The pEC50 is the EC50 on a negative log10 scale, so that one unit is a factor of ten.

`COC(=O)C[C@H](NC(=O)[C@H](C)NC(=O)[C@@H](NC(=O)OCc1ccccc1)C(C)C)C(=O)CF` [Z-VAD-FMK, reference compound] (Cbz-Val-Ala-Asp(OMe)-CH2F): the “caspase activation and PARP cleavage under co-treatment with trans-7b” value with caspases 9 and 3 is listed as “sufficiently inhibited”. The “trans-7b-induced induction of apoptosis under co-incubation” value in the series on INA-6 (INA-6, Z-VAD-FMK 50 μM with trans-7b 0.6 μM) is recorded as “largely prevented”.

`COc1ccc(N2C(=O)c3ccccc3C(C(=O)O)C2c2ccccc2)cc1` (stereo not drawn) [cis-5c, cis-2-(4-Methoxyphenyl)-1-oxo-3-phenyl-1,2,3,4-tetrahydroisoquinoline-4-carboxylic acid] yielded a melting point of 208 to 209 °C. In the series with INA-6 (Homo sapiens, INA-6, 72 h), the pEC50 is less than 4.00.

In the case of `COc1ccc(C2C(C(=O)O)c3ccccc3C(=O)N2c2ccc(OC)cc2)cc1` (stereo not drawn) [cis-5d, cis-2,3-Bis(4-methoxyphenyl)-1-oxo-1,2,3,4-tetrahydroisoquinoline-4-carboxylic acid], the melting point lay in the range of 232 to 233 °C. The pEC50 with INA-6 was less than 4.00.

With `O=C(O)C1c2ccccc2C(=O)N(c2ccccc2)C1c1ccccc1` (stereo not drawn) [trans-5a, trans-2,3-Diphenyl-1-oxo-1,2,3,4-tetrahydroisoquinoline-4-carboxylic acid], the melting point was 226 to 229 °C. For the same compound, in the series with INA-6 (Homo sapiens, INA-6, 72 h), the pEC50 was 5.16.

As to `COc1ccc(C2C(C(=O)O)c3ccccc3C(=O)N2c2ccccc2)cc1` (stereo not drawn) [trans-5b, trans-3-(4-Methoxyphenyl)-1-oxo-2-phenyl-1,2,3,4-tetrahydroisoquinoline-4-carboxylic acid], the melting point was in the range of 171 to 173 °C. The negative logarithm of the EC50 (pEC50) in the series with INA-6 (Homo sapiens, INA-6, 72 h) is 5.89.

`COc1ccc(N2C(=O)c3ccccc3C(C(=O)O)C2c2ccccc2)cc1` (stereo not drawn) [trans-5c, trans-2-(4-Methoxyphenyl)-1-oxo-3-phenyl-1,2,3,4-tetrahydroisoquinoline-4-carboxylic acid] gave a melting point of 106 to 118 °C. Further, the pEC50 with INA-6 is 4.24.

Turning to `COc1ccc(C2C(C(=O)O)c3ccccc3C(=O)N2c2ccc(OC)cc2)cc1` (stereo not drawn) [trans-5d, trans-2,3-Bis(4-methoxyphenyl)-1-oxo-1,2,3,4-tetrahydroisoquinoline-4-carboxylic acid], the melting point is 201 to 203 °C. Also, the pEC50 in the series on INA-6 is 5.00.
